# From PubChem BioAssay (NCI)
#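 Tested at 5 concentrations; 48 h exposure; 96-well plates; endpoints linearly interpolated, else capped at highest concentration. TGI is the concentration that stops growth completely.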
# How the values were obtained:
# Experiment in all cases: inhibition of tumour cell growth, NCI panel, 48 h
# 786-0 renal = tested on: 786-0 renal
# A498 renal = tested on: A498 renal
# A549 NSCLC = tested on: A549 NSCLC
# ACHN renal = tested on: ACHN renal
# CAKI-1 renal = tested on: CAKI-1 renal
# CCRF-CEM leukemia = tested on: CCRF-CEM leukemia
# COLO 205 colon = tested on: COLO 205 colon
# DLD-1 colon = tested on: DLD-1 colon
# DMS 114 small cell lung = tested on: DMS 114 small cell lung
# HCT-116 colon = tested on: HCT-116 colon
# HCT-15 colon = tested on: HCT-15 colon
# HL-60(TB) leukemia = tested on: HL-60(TB) leukemia
# HOP-18 NSCLC = tested on: HOP-18 NSCLC
# HOP-62 NSCLC = tested on: HOP-62 NSCLC
# HOP-92 NSCLC = tested on: HOP-92 NSCLC
# HT29 colon = tested on: HT29 colon
# IGROV1 ovarian = tested on: IGROV1 ovarian
# K-562 leukemia = tested on: K-562 leukemia
# KM12 colon = tested on: KM12 colon
# KM20L2 colon = tested on: KM20L2 colon
# LOX IMVI melanoma = tested on: LOX IMVI melanoma
# LXFL 529 NSCLC = tested on: LXFL 529 NSCLC
# M14 melanoma = tested on: M14 melanoma
# M19-MEL melanoma = tested on: M19-MEL melanoma
# MALME-3M melanoma = tested on: MALME-3M melanoma
# MOLT-4 leukemia = tested on: MOLT-4 leukemia
# NCI-H226 lung = tested on: NCI-H226 lung
# NCI-H23 lung = tested on: NCI-H23 lung
# NCI-H460 lung = tested on: NCI-H460 lung
# NCI-H522 lung = tested on: NCI-H522 lung
# OVCAR-3 ovarian = tested on: OVCAR-3 ovarian
# OVCAR-4 ovarian = tested on: OVCAR-4 ovarian
# OVCAR-5 ovarian = tested on: OVCAR-5 ovarian
# OVCAR-8 ovarian = tested on: OVCAR-8 ovarian
# RPMI-8226 leukemia = tested on: RPMI-8226 leukemia
# SF-268 CNS = tested on: SF-268 CNS
# SF-295 CNS = tested on: SF-295 CNS
# SF-539 CNS = tested on: SF-539 CNS
# SK-MEL-2 melanoma = tested on: SK-MEL-2 melanoma
# SK-MEL-28 melanoma = tested on: SK-MEL-28 melanoma
# SK-MEL-5 melanoma = tested on: SK-MEL-5 melanoma
# SK-OV-3 ovarian = tested on: SK-OV-3 ovarian
# SN12C renal = tested on: SN12C renal
# SNB-19 CNS = tested on: SNB-19 CNS
# SNB-78 CNS = tested on: SNB-78 CNS
# SR leukemia = tested on: SR leukemia
# SW-620 colon = tested on: SW-620 colon
# TK-10 renal = tested on: TK-10 renal
# U251 CNS = tested on: U251 CNS
# UACC-257 melanoma = tested on: UACC-257 melanoma
# UACC-62 melanoma = tested on: UACC-62 melanoma
# UO-31 renal = tested on: UO-31 renal
# DMS 273 small cell lung = tested on: DMS 273 small cell lung
# EKVX NSCLC = tested on: EKVX NSCLC
# HCC-2998 colon = tested on: HCC-2998 colon
# RXF 393 renal = tested on: RXF 393 renal
# SNB-75 CNS = tested on: SNB-75 CNS
# XF 498 CNS = tested on: XF 498 CNS
compound,measurement,setting,value
CCN(CC)CCNc1ccc2ncn3c4ccccc4c(=O)c1c23,TGI,786-0 renal,15.4 µM
same,TGI,A498 renal,20.6 µM
same,TGI,A549 NSCLC,10.2 µM
same,TGI,ACHN renal,12.2 µM
same,TGI,CAKI-1 renal,6.73 µM
same,TGI,CCRF-CEM leukemia,> 100 µM
same,TGI,COLO 205 colon,9.78 µM
same,TGI,DLD-1 colon,18.9 µM
same,TGI,DMS 114 small cell lung,17.5 µM
same,TGI,HCT-116 colon,12.8 µM
same,TGI,HCT-15 colon,16 µM
same,TGI,HL-60(TB) leukemia,> 100 µM
same,TGI,HOP-18 NSCLC,37.4 µM
same,TGI,HOP-62 NSCLC,21.6 µM
same,TGI,HOP-92 NSCLC,10.4 µM
same,TGI,HT29 colon,11 µM
same,TGI,IGROV1 ovarian,15.7 µM
same,TGI,K-562 leukemia,> 100 µM
same,TGI,KM12 colon,17.6 µM
same,TGI,KM20L2 colon,17.9 µM
same,TGI,LOX IMVI melanoma,3.73 µM
same,TGI,LXFL 529 NSCLC,18.3 µM
same,TGI,M14 melanoma,16.8 µM
same,TGI,M19-MEL melanoma,13.9 µM
same,TGI,MALME-3M melanoma,15.1 µM
same,TGI,MOLT-4 leukemia,> 100 µM
same,TGI,NCI-H226 lung,7.67 µM
same,TGI,NCI-H23 lung,19.8 µM
same,TGI,NCI-H460 lung,8.98 µM
same,TGI,NCI-H522 lung,12.3 µM
same,TGI,OVCAR-3 ovarian,49.7 µM
same,TGI,OVCAR-4 ovarian,9.53 µM
same,TGI,OVCAR-5 ovarian,34.1 µM
same,TGI,OVCAR-8 ovarian,13.3 µM
same,TGI,RPMI-8226 leukemia,> 100 µM
same,TGI,SF-268 CNS,18.7 µM
same,TGI,SF-295 CNS,14.5 µM
same,TGI,SF-539 CNS,18 µM
same,TGI,SK-MEL-2 melanoma,16.3 µM
same,TGI,SK-MEL-28 melanoma,16.4 µM
same,TGI,SK-MEL-5 melanoma,13.3 µM
same,TGI,SK-OV-3 ovarian,14.3 µM
same,TGI,SN12C renal,> 100 µM
same,TGI,SNB-19 CNS,32 µM
same,TGI,SNB-78 CNS,18.9 µM
same,TGI,SR leukemia,> 100 µM
same,TGI,SW-620 colon,16 µM
same,TGI,TK-10 renal,79.9 µM
same,TGI,U251 CNS,17.5 µM
same,TGI,UACC-257 melanoma,15.1 µM
same,TGI,UACC-62 melanoma,14.6 µM
same,TGI,UO-31 renal,12.2 µM
CC(C)(C)c1ccc2c(c1)C(O)(c1ccccc1)c1cc(C(C)(C)C)ccc1C2(O)C(F)(F)F (configuration not stated),TGI,786-0 renal,3.77 µM
same,TGI,A498 renal,3.25 µM
same,TGI,A549 NSCLC,3.7 µM
same,TGI,ACHN renal,5.77 µM
same,TGI,CAKI-1 renal,4.73 µM
same,TGI,CCRF-CEM leukemia,5.57 µM
same,TGI,COLO 205 colon,3.27 µM
same,TGI,DLD-1 colon,4.15 µM
same,TGI,DMS 114 small cell lung,5.21 µM
same,TGI,DMS 273 small cell lung,3.55 µM
same,TGI,EKVX NSCLC,9.85 µM
same,TGI,HCC-2998 colon,3.66 µM
same,TGI,HCT-116 colon,3.37 µM
same,TGI,HCT-15 colon,3.83 µM
same,TGI,HL-60(TB) leukemia,5.15 µM
same,TGI,HOP-18 NSCLC,5.06 µM
same,TGI,HOP-62 NSCLC,2.94 µM
same,TGI,HOP-92 NSCLC,3.79 µM
same,TGI,HT29 colon,2.99 µM
same,TGI,IGROV1 ovarian,4.94 µM
same,TGI,K-562 leukemia,5.62 µM
same,TGI,KM12 colon,4.87 µM
same,TGI,KM20L2 colon,3.05 µM
same,TGI,LOX IMVI melanoma,3.32 µM
same,TGI,LXFL 529 NSCLC,4.39 µM
same,TGI,M14 melanoma,3.59 µM
same,TGI,M19-MEL melanoma,3.7 µM
same,TGI,MALME-3M melanoma,5.56 µM
same,TGI,MOLT-4 leukemia,4.71 µM
same,TGI,NCI-H226 lung,2.35 µM
same,TGI,NCI-H23 lung,4.39 µM
same,TGI,NCI-H460 lung,3.5 µM
same,TGI,NCI-H522 lung,3.45 µM
same,TGI,OVCAR-3 ovarian,4.29 µM
same,TGI,OVCAR-4 ovarian,3.7 µM
same,TGI,OVCAR-5 ovarian,3.05 µM
same,TGI,OVCAR-8 ovarian,4.29 µM
same,TGI,RXF 393 renal,3.87 µM
same,TGI,SF-268 CNS,4.48 µM
same,TGI,SF-295 CNS,2.88 µM
same,TGI,SF-539 CNS,3.41 µM
same,TGI,SK-MEL-2 melanoma,3.63 µM
same,TGI,SK-MEL-28 melanoma,4.54 µM
same,TGI,SK-OV-3 ovarian,8.57 µM
same,TGI,SN12C renal,3.14 µM
same,TGI,SNB-19 CNS,6.32 µM
same,TGI,SNB-75 CNS,5.48 µM
same,TGI,SR leukemia,5.12 µM
same,TGI,SW-620 colon,4.23 µM
same,TGI,TK-10 renal,11.4 µM
same,TGI,U251 CNS,3.31 µM
same,TGI,UACC-257 melanoma,4.85 µM
same,TGI,UACC-62 melanoma,3.66 µM
same,TGI,UO-31 renal,4.58 µM
same,TGI,XF 498 CNS,2.9 µM
